#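 48-hour exposure; five concentrations; linearly interpolated endpoints. GI50 is the concentration that inhibits growth by half. Definition used: TGI = concentration required for complete inhibition of growth.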
# Key:
# Assay in all cases: growth of human tumour cells (NCI), 48 h
# 786-0 renal = system: 786-0 renal
# A498 renal = system: A498 renal
# A549 NSCLC = system: A549 NSCLC
# ACHN renal = system: ACHN renal
# BT-549 breast = system: BT-549 breast
# CAKI-1 renal = system: CAKI-1 renal
# CCRF-CEM leukemia = system: CCRF-CEM leukemia
# COLO 205 colon = system: COLO 205 colon
# DU-145 prostate = system: DU-145 prostate
# EKVX NSCLC = system: EKVX NSCLC
# HCC-2998 colon = system: HCC-2998 colon
# HCT-116 colon = system: HCT-116 colon
# HCT-15 colon = system: HCT-15 colon
# HL-60(TB) leukemia = system: HL-60(TB) leukemia
# HOP-62 NSCLC = system: HOP-62 NSCLC
# HOP-92 NSCLC = system: HOP-92 NSCLC
# HS 578T breast = system: HS 578T breast
# HT29 colon = system: HT29 colon
# IGROV1 ovarian = system: IGROV1 ovarian
# K-562 leukemia = system: K-562 leukemia
# KM12 colon = system: KM12 colon
# LOX IMVI melanoma = system: LOX IMVI melanoma
# M14 melanoma = system: M14 melanoma
# MALME-3M melanoma = system: MALME-3M melanoma
# MCF7 breast = system: MCF7 breast
# MDA-MB-231 breast = system: MDA-MB-231 breast
# MDA-MB-435 = system: MDA-MB-435
# MDA-MB-468 breast = system: MDA-MB-468 breast
# MOLT-4 leukemia = system: MOLT-4 leukemia
# NCI-H226 lung = system: NCI-H226 lung
# NCI-H23 lung = system: NCI-H23 lung
# NCI-H460 lung = system: NCI-H460 lung
# NCI-H522 lung = system: NCI-H522 lung
# NCI/ADR-RES ovarian = system: NCI/ADR-RES ovarian
# OVCAR-3 ovarian = system: OVCAR-3 ovarian
# OVCAR-4 ovarian = system: OVCAR-4 ovarian
# OVCAR-5 ovarian = system: OVCAR-5 ovarian
# OVCAR-8 ovarian = system: OVCAR-8 ovarian
# PC-3 prostate = system: PC-3 prostate
# RPMI-8226 leukemia = system: RPMI-8226 leukemia
# RXF 393 renal = system: RXF 393 renal
# SF-268 CNS = system: SF-268 CNS
# SF-295 CNS = system: SF-295 CNS
# SF-539 CNS = system: SF-539 CNS
# SK-MEL-2 melanoma = system: SK-MEL-2 melanoma
# SK-MEL-28 melanoma = system: SK-MEL-28 melanoma
# SK-MEL-5 melanoma = system: SK-MEL-5 melanoma
# SK-OV-3 ovarian = system: SK-OV-3 ovarian
# SN12C renal = system: SN12C renal
# SNB-19 CNS = system: SNB-19 CNS
# SNB-75 CNS = system: SNB-75 CNS
# SR leukemia = system: SR leukemia
# SW-620 colon = system: SW-620 colon
# T-47D breast = system: T-47D breast
# TK-10 renal = system: TK-10 renal
# U251 CNS = system: U251 CNS
# UACC-257 melanoma = system: UACC-257 melanoma
# UACC-62 melanoma = system: UACC-62 melanoma
# UO-31 renal = system: UO-31 renal
structure (smiles),measurement,setting,value
Nc1nc(-c2ccccc2)c(N=Nc2ccc(Cl)cc2Cl)s1,GI50,786-0 renal,2.48 µM
same,TGI,786-0 renal,6.34 µM
same,GI50,A498 renal,6.03 µM
same,TGI,A498 renal,18.4 µM
same,GI50,A549 NSCLC,3.67 µM
same,TGI,A549 NSCLC,14.7 µM
same,GI50,ACHN renal,2.81 µM
same,TGI,ACHN renal,12.9 µM
same,GI50,BT-549 breast,2.43 µM
same,TGI,BT-549 breast,9.74 µM
same,GI50,CAKI-1 renal,2.52 µM
same,TGI,CAKI-1 renal,12.3 µM
same,GI50,CCRF-CEM leukemia,3.13 µM
same,TGI,CCRF-CEM leukemia,11 µM
same,GI50,COLO 205 colon,3.91 µM
same,TGI,COLO 205 colon,14.1 µM
same,GI50,DU-145 prostate,5.52 µM
same,TGI,DU-145 prostate,17.8 µM
same,GI50,EKVX NSCLC,2.04 µM
same,TGI,EKVX NSCLC,12.3 µM
same,GI50,HCC-2998 colon,1.84 µM
same,TGI,HCC-2998 colon,5.41 µM
same,GI50,HCT-116 colon,3.33 µM
same,TGI,HCT-116 colon,12.6 µM
same,GI50,HCT-15 colon,2.81 µM
same,TGI,HCT-15 colon,11.7 µM
same,GI50,HL-60(TB) leukemia,3.42 µM
same,TGI,HL-60(TB) leukemia,12.9 µM
same,GI50,HOP-62 NSCLC,4.01 µM
same,TGI,HOP-62 NSCLC,18.4 µM
same,GI50,HOP-92 NSCLC,1.85 µM
same,TGI,HOP-92 NSCLC,5.86 µM
same,GI50,HS 578T breast,3.14 µM
same,TGI,HS 578T breast,17.8 µM
same,GI50,HT29 colon,3.31 µM
same,TGI,HT29 colon,10.9 µM
same,GI50,IGROV1 ovarian,2.13 µM
same,TGI,IGROV1 ovarian,12.7 µM
same,GI50,K-562 leukemia,3.58 µM
same,TGI,K-562 leukemia,14.9 µM
same,GI50,KM12 colon,2.99 µM
same,TGI,KM12 colon,12.8 µM
same,GI50,LOX IMVI melanoma,1.83 µM
same,TGI,LOX IMVI melanoma,5.17 µM
same,GI50,M14 melanoma,2.88 µM
same,TGI,M14 melanoma,9.54 µM
same,GI50,MALME-3M melanoma,5.38 µM
same,TGI,MALME-3M melanoma,18.1 µM
same,GI50,MCF7 breast,2.16 µM
same,TGI,MCF7 breast,10.9 µM
same,GI50,MDA-MB-231 breast,2.19 µM
same,TGI,MDA-MB-231 breast,8.67 µM
same,GI50,MDA-MB-435,3.74 µM
same,TGI,MDA-MB-435,14.4 µM
same,GI50,MDA-MB-468 breast,0.83 µM
same,TGI,MDA-MB-468 breast,3.88 µM
same,GI50,MOLT-4 leukemia,2.73 µM
same,TGI,MOLT-4 leukemia,10.3 µM
same,GI50,NCI-H226 lung,2.11 µM
same,TGI,NCI-H226 lung,10.4 µM
same,GI50,NCI-H23 lung,2.91 µM
same,TGI,NCI-H23 lung,13.5 µM
same,GI50,NCI-H460 lung,2.92 µM
same,TGI,NCI-H460 lung,11.7 µM
same,GI50,NCI-H522 lung,2.91 µM
same,TGI,NCI-H522 lung,13.3 µM
same,GI50,NCI/ADR-RES ovarian,3.03 µM
same,TGI,NCI/ADR-RES ovarian,10.9 µM
same,GI50,OVCAR-3 ovarian,3.57 µM
same,TGI,OVCAR-3 ovarian,13.2 µM
same,GI50,OVCAR-4 ovarian,3.82 µM
same,TGI,OVCAR-4 ovarian,17 µM
same,GI50,OVCAR-5 ovarian,3.58 µM
same,TGI,OVCAR-5 ovarian,15.4 µM
same,GI50,OVCAR-8 ovarian,5.82 µM
same,TGI,OVCAR-8 ovarian,18.7 µM
same,GI50,PC-3 prostate,3.16 µM
same,TGI,PC-3 prostate,12.4 µM
same,GI50,RPMI-8226 leukemia,3.31 µM
same,TGI,RPMI-8226 leukemia,15.2 µM
same,GI50,RXF 393 renal,3.02 µM
same,TGI,RXF 393 renal,11.7 µM
same,GI50,SF-268 CNS,4.91 µM
same,TGI,SF-268 CNS,17.8 µM
same,GI50,SF-295 CNS,3.23 µM
same,TGI,SF-295 CNS,13.2 µM
same,GI50,SF-539 CNS,2.78 µM
same,TGI,SF-539 CNS,10.5 µM
same,GI50,SK-MEL-2 melanoma,3.03 µM
same,TGI,SK-MEL-2 melanoma,12.8 µM
same,GI50,SK-MEL-28 melanoma,4.69 µM
same,TGI,SK-MEL-28 melanoma,16.5 µM
same,GI50,SK-MEL-5 melanoma,2.6 µM
same,TGI,SK-MEL-5 melanoma,8.66 µM
same,GI50,SK-OV-3 ovarian,3.86 µM
same,TGI,SK-OV-3 ovarian,16.3 µM
same,GI50,SN12C renal,3.81 µM
same,TGI,SN12C renal,15.3 µM
same,GI50,SNB-19 CNS,6.02 µM
same,TGI,SNB-19 CNS,18.7 µM
same,GI50,SNB-75 CNS,1.57 µM
same,TGI,SNB-75 CNS,8.52 µM
same,GI50,SR leukemia,3.1 µM
same,TGI,SR leukemia,12.8 µM
same,GI50,SW-620 colon,2.88 µM
same,TGI,SW-620 colon,13.5 µM
same,GI50,T-47D breast,1.03 µM
same,TGI,T-47D breast,6.56 µM
same,GI50,TK-10 renal,5.25 µM
same,TGI,TK-10 renal,14.9 µM
same,GI50,U251 CNS,4.28 µM
same,TGI,U251 CNS,15.8 µM
same,GI50,UACC-257 melanoma,4.13 µM
same,TGI,UACC-257 melanoma,16.3 µM
same,GI50,UACC-62 melanoma,2.45 µM
same,TGI,UACC-62 melanoma,12 µM
same,GI50,UO-31 renal,1.45 µM
same,TGI,UO-31 renal,11.7 µM

# Source: PubChem BioAssay (NCI)
